The source of these data is patent publication US8119624B2, “Fused phenyl amido heterocyclic compounds” (Pfizer Inc., priority 2006, dated 2012).

By EC50 is commonly meant the concentration needed to bring the measured effect to its halfway point.

The assay addresses T1, Full-length glucokinase (beta cell isoform) (Homo sapiens, UniProt P35557).
T1 construct: Full-length glucokinase (beta cell isoform) was His-tagged at N-terminus; His tag (N); made in house
T1 sequence (P35557 1-465): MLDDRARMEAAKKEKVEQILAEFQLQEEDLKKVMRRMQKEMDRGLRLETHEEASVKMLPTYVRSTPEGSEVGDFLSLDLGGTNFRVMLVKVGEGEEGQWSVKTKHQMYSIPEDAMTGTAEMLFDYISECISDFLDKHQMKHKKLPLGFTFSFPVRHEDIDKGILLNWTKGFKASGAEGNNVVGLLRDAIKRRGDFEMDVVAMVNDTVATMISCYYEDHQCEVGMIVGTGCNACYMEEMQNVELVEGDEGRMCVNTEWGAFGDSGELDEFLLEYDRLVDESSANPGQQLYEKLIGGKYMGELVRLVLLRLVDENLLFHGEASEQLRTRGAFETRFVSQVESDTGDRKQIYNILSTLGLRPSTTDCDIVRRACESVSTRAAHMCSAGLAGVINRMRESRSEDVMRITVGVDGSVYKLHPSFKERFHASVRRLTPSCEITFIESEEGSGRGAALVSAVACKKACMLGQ
Description: Glucokinase biochemical assay (PK/LDH-coupled, NADH depletion at 340 nm): % activation, EC50, % max activation. The settings on record: 5 mM glucose; for activation at 10 µM: 10 uM compound, % Activation=(Va/Vo−1)×100, read-out: % Activation at 10 uM; for EC50: GK activation, read-out: EC50; for Emax: fitted maximum activation, read-out: % Max Activation. The procedure, abridged:
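N-terminally His-tagged full-length human beta-cell glucokinase, room temperature, 5 mM glucose, 1 mM ATP, PK/LDH-coupled with 0.7 mM NADH, 1% DMSO final. Initial velocity from the 200–900 s slope of A340 decline. % activation = (Va/Vo−1)×100, measured across compound concentrations.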

SMILES strings stand for the structures.

As for `CCc1nc(O)cc(COc2cc(C(=O)Nc3ccn(C)n3)cc3c2CC(C)(C)O3)n1` [Example 104, 4-(2-Ethyl-6-hydroxy-pyrimidin-4-ylmethoxy)-2,2-dimethyl-2,3-dihydro-benzofuran-6-carboxylic acid (1-methyl-1H-pyrazol-3-yl)-amide], the activation at 10 µM came to 149%, the EC50 amounted to 1800 nM and the Emax amounted to 134%.

On to `Cn1cc(C(=O)COc2cc(C(=O)Nc3ccn(C)n3)cc3c2CC(C)(C)O3)cn1` [Example 105, 2,2-Dimethyl-4-[2-(1-methyl-1H-pyrazol-4-yl)-2-oxo-ethoxy]-2,3-dihydro-benzofuran-6-carboxylic acid (1-methyl-1H-pyrazol-3-yl)-amide], for which the activation at 10 µM was found to be 70.1%, the 50% effective concentration (EC50) was found to be 9400 nM and the Emax came to 102%.

Take `Cc1ncccc1COc1cc(C(=O)Nc2ccn(C)n2)cc2c1CC(C)(C)O2` [Example 106, 2,2-Dimethyl-4-(2-methyl-pyridin-3-ylmethoxy)-2,3-dihydro-benzofuran-6-carboxylic acid (1-methyl-1H-pyrazol-3-yl)-amide]: the activation at 10 µM came out at 143%, the 50% effective concentration (EC50) worked out at 2400 nM and the Emax came to 141%.

Turning to `CN(C)C(=O)c1ccc(Oc2cc(C(=O)Nc3ccn(C)n3)cc3c2CC(C)(C)O3)c(Cl)c1` [Example 107, 4-(2-Chloro-4-dimethylcarbamoyl-phenoxy)-2,2-dimethyl-2,3-dihydro-benzofuran-6-carboxylic acid (1-methyl-1H-pyrazol-3-yl)-amide], the activation at 10 µM came to 173%, the concentration for a half-maximal effect (EC50) turned out to be 97 nM and the Emax amounted to 163%.

In the case of `CN(C)C(=O)c1ccc(Oc2cc(C(=O)Nc3ccn(C)n3)cc3c2CC(C)(C)O3)cc1Cl` [Example 108, 4-(3-Chloro-4-dimethylcarbamoyl-phenoxy)-2,2-dimethyl-2,3-dihydro-benzofuran-6-carboxylic acid (1-methyl-1H-pyrazol-3-yl)-amide], the activation at 10 µM came to 82.2%, the EC50 worked out at 76 nM and the Emax was determined as 107%.

For `CN(C)C(=O)c1cc(F)c(Oc2cc(C(=O)Nc3ccn(C)n3)cc3c2CC(C)(C)O3)cc1F` [Example 109, 4-(4-Dimethylcarbamoyl-2,5-difluoro-phenoxy)-2,2-dimethyl-2,3-dihydro-benzofuran-6-carboxylic acid (1-methyl-1H-pyrazol-3-yl)-amide], the activation at 10 µM stood at 86.9%, the EC50 amounted to 280 nM and the Emax came to 83%.

`Cn1ccc(NC(=O)c2cc(Oc3cc(F)c(C(=O)N4CCC4)c(F)c3)c3c(c2)OC(C)(C)C3)n1` [Example 110, 4-[4-(Azetidine-1-carbonyl)-3,5-difluoro-phenoxy]-2,2-dimethyl-2,3-dihydro-benzofuran-6-carboxylic acid (1-methyl-1H-pyrazol-3-yl)-amide]: the activation at 10 µM is 139%, the half-maximal effective concentration (EC50) amounted to 72 nM and the Emax stood at 131%.

For `CN(C)C(=O)c1c(F)cc(Oc2cc(C(=O)Nc3ccn(C)n3)cc3c2CC(C)(C)O3)cc1F` [Example 111, 4-(4-Dimethylcarbamoyl-3,5-difluoro-phenoxy)-2,2-dimethyl-2,3-dihydro-benzofuran-6-carboxylic acid (1-methyl-1H-pyrazol-3-yl)-amide], the activation at 10 µM worked out at 85.2%, the EC50 amounted to 45 nM and the Emax amounted to 115%.

Regarding `CCNC(=O)c1c(F)cc(Oc2cc(C(=O)Nc3ccn(C)n3)cc3c2CC(C)(C)O3)cc1F` [Example 112, 4-(4-Ethylcarbamoyl-3,5-difluoro-phenoxy)-2,2-dimethyl-2,3-dihydro-benzofuran-6-carboxylic acid (1-methyl-1H-pyrazol-3-yl)-amide], the activation at 10 µM turned out to be 130%, the EC50 stood at 44 nM and the Emax amounted to 153%.

Take `Cn1ccc(NC(=O)c2cc(Oc3cc(F)cc(F)c3)c3c(c2)OC(C)(C)C3)n1` [Example 113, 4-(3,5-Difluoro-phenoxy)-2,2-dimethyl-2,3-dihydro-benzofuran-6-carboxylic acid (1-methyl-1H-pyrazol-3-yl)-amide]: the activation at 10 µM came to 239%, the EC50 came to 2600 nM and the Emax came to 265%.

On to `Cn1ccc(NC(=O)c2cc(Oc3ccc(S(C)(=O)=O)c(F)c3)c3c(c2)OC(C)(C)C3)n1` [Example 114, 4-(3-Fluoro-4-methanesulfonyl-phenoxy)-2,2-dimethyl-2,3-dihydro-benzofuran-6-carboxylic acid (1-methyl-1H-pyrazol-3-yl)-amide], for which the activation at 10 µM was 156%, the concentration for a half-maximal effect (EC50) was 203 nM and the Emax came out at 164%.

Regarding `Cn1ccc(NC(=O)c2cc(Oc3cc(F)ccc3S(C)(=O)=O)c3c(c2)OC(C)(C)C3)n1` [Example 115, 4-(5-Fluoro-2-methanesulfonyl-phenoxy)-2,2-dimethyl-2,3-dihydro-benzofuran-6-carboxylic acid (1-methyl-1H-pyrazol-3-yl)-amide], the activation at 10 µM was determined as 79.7%, the concentration for a half-maximal effect (EC50) came to 8800 nM and the Emax came out at 141%.

Consider `Cc1ccc(NC(=O)c2cc(Oc3ccc(S(C)(=O)=O)c(F)c3)c3c(c2)OC(C)(C)C3)nc1` [Example 116, 4-(3-Fluoro-4-methanesulfonyl-phenoxy)-2,2-dimethyl-2,3-dihydro-benzofuran-6-carboxylic acid (5-methyl-pyridin-2-yl)-amide], for which the activation at 10 µM is 110%, the EC50 amounted to 73 nM and the Emax is 112%.

`Cn1ncc(NC(=O)c2cc(Oc3ccc(S(C)(=O)=O)c(F)c3)c3c(c2)OC(C)(C)C3)n1` [Example 117, 4-(3-Fluoro-4-methanesulfonyl-phenoxy)-2,2-dimethyl-2,3-dihydro-benzofuran-6-carboxylic acid (2-methyl-2H-[1,2,3]triazol-4-yl)-amide]: the activation at 10 µM amounted to 325%, the EC50 turned out to be 150 nM and the Emax stood at 283%.

As to `Cn1ncc(NC(=O)c2cc(Oc3ccc(S(C)(=O)=O)c(Cl)c3)c3c(c2)OC(C)(C)C3)n1` [Example 118, 4-(3-Chloro-4-methanesulfonyl-phenoxy)-2,2-dimethyl-2,3-dihydro-benzofuran-6-carboxylic acid (2-methyl-2H-[1,2,3]triazol-4-yl)-amide], the activation at 10 µM is 244%, the EC50 worked out at 320 nM and the Emax stood at 251%.

For the compound `Cn1ncc(NC(=O)c2cc(Oc3ccc(S(C)(=O)=O)cc3Cl)c3c(c2)OC(C)(C)C3)n1` [Example 119, 4-(2-Chloro-4-methanesulfonyl-phenoxy)-2,2-dimethyl-2,3-dihydro-benzofuran-6-carboxylic acid (2-methyl-2H-[1,2,3]triazol-4-yl)-amide], the activation at 10 µM is 242%, the EC50 came out at 430 nM and the Emax stood at 223%.

Regarding `Cc1ccc(NC(=O)c2cc(Oc3ccc(S(C)(=O)=O)cc3F)c3c(c2)OC(C)(C)C3)nc1` [Example 120, 4-(2-Fluoro-4-methanesulfonyl-phenoxy)-2,2-dimethyl-2,3-dihydro-benzofuran-6-carboxylic acid (5-methyl-pyridin-2-yl)-amide], the activation at 10 µM came to 80.5%, the concentration giving a half-maximal response (EC50) turned out to be 200 nM and the Emax turned out to be 79%.

For the compound `Cn1ccc(NC(=O)c2cc(Oc3ccc(S(C)(=O)=O)cc3F)c3c(c2)OC(C)(C)C3)n1` [Example 121, 4-(2-Fluoro-4-methanesulfonyl-phenoxy)-2,2-dimethyl-2,3-dihydro-benzofuran-6-carboxylic acid (1-methyl-1H-pyrazol-3-yl)-amide], the activation at 10 µM worked out at 124%, the EC50 worked out at 500 nM and the Emax worked out at 152%.

Turning to `CN(C)S(=O)(=O)c1ccc(Oc2cc(C(=O)Nc3ccn(C)n3)cc3c2CC(C)(C)O3)cc1` [Example 122, 4-(4-Dimethylsulfamoyl-phenoxy)-2,2-dimethyl-2,3-dihydro-benzofuran-6-carboxylic acid (1-methyl-1H-pyrazol-3-yl)-amide], the activation at 10 µM was found to be 184%, the concentration giving a half-maximal response (EC50) worked out at 100 nM and the Emax worked out at 159%.

With `Cn1ccc(NC(=O)c2cc(Oc3ccc(S(=O)(=O)C4CCC4)cc3)c3c(c2)OC(C)(C)C3)n1` [Example 123, 4-(4-Cyclobutanesulfonyl-phenoxy)-2,2-dimethyl-2,3-dihydro-benzofuran-6-carboxylic acid (1-methyl-1H-pyrazol-3-yl)-amide], the activation at 10 µM came to 189%, the EC50 was found to be 55 nM and the Emax is 150%.

Regarding `Cc1ccc(NC(=O)c2cc(Oc3ccc(S(=O)(=O)N4CCC4)cc3)c3c(c2)OC(C)(C)C3)nc1` [Example 124, 4-[4-(Azetidine-1-sulfonyl)-phenoxy]-2,2-dimethyl-2,3-dihydro-benzofuran-6-carboxylic acid (5-methyl-pyridin-2-yl)-amide], the activation at 10 µM stood at 156%, the EC50 is 38 nM and the Emax is 113%.
